Data on 25 compounds can be found in US5945436A, “Pyridylmethyl nitriles, amides and thioamides useful as fungicides” (Uniroyal Chemical Company, Inc., priority 1997, dated 1999).

The subject of one assay is Erysiphe graminis. The assay can be described thus: Powdery mildew in barley, foliar application (ERY GRA). The assay is classed as in vivo. To be noted: foliar, 1,000 mg/l, 8 days after inoculation; for pest or weed control at 1000 µg/mL: Blumeria graminis, foliar, 192 h, read-out: Percent Reduction of Disease, ERY GRA. Here is the method: Compositions containing Compounds Nos. 1-81 were prepared by dissolving 0.24 grams of each of the compounds in 8 ml of acetone or other suitable inert solvent. Each of the resultant solutions was treated with 3 drops of TWEEN 20 (ethoxylated ethylene sorbitan monolaurate, a non-ionic surfactant)(I.C.I.), and water was added to form an emulsion. The degree of dilution with water was dictated by the desired concentration of the compound in the composition. The greater the quantity of water added, the lower the concentration of the compound in the composition, reported in milligrams per liter (mg/l) Ten plants of "Robust" variety barley were planted in each of a plurality of pots. Each pot was then either sprayed with one of the compositions of Example 9, at a composition concentration of 1,000 mg/l, or left unsprayed. For each pot sprayed, one pot was left unsprayed as a control. After the leaves of the sprayed pots were dried, the sprayed pots and the unsprayed control pots were placed in a greenhouse maintained at 21° C. All the pots were then inoculated with barley powdery mildew fungus, Erysiphe graminis. This inoculation was accomplished by distributing spores of the fungus over the leaves of the plants to be tested from plants which had previously been infected with the mildew disease. […] Again, percent control was computed by comparing the treatment scores with the scores of the untreated controls. The results are summarized in Table II under the heading "ERY GRA".

The subject of a further assay is Rhizoctonia solani. In words: Fungal growth inhibition, treated disc on agar (RHI SOL). In kind it is cell-based. To be noted: disc dipped in 500 mg/l, 29° C.; for inhibition at 500 µg/mL: Rhizoctonia solani, read-out: Percent Growth Inhibition, RHI SOL.
A further assay concerns Helminthosporium sativum. The assay can be described thus: Barley spot blotch, foliar treatment (HEL SAT). In kind it is in vivo. To be noted: foliar, 1,000 mg/l; for pest or weed control at 1000 µg/mL: Helminthosporium, foliar, 216 h, read-out: Percent Reduction of Disease, HEL SAT. As for the experimental part: Compositions containing Compounds Nos. 1-81 were prepared by dissolving 0.24 grams of each of the compounds in 8 ml of acetone or other suitable inert solvent. Each of the resultant solutions was treated with 3 drops of TWEEN 20 (ethoxylated ethylene sorbitan monolaurate, a non-ionic surfactant)(I.C.I.), and water was added to form an emulsion. The degree of dilution with water was dictated by the desired concentration of the compound in the composition. The greater the quantity of water added, the lower the concentration of the compound in the composition, reported in milligrams per liter (mg/l) Ten plants of six day-old Barley (variety "Robust") were planted in each of a plurality of pots. Each pot was then either sprayed with one of the compositions of Example 9, at a concentration of 1,000 mg/l, or left unsprayed. The unsprayed plants were used as controls. An equal number of pots were sprayed and unsprayed. All plants, sprayed and unsprayed, were thereafter inoculated with spores of the blotch fungus Helminthosporium sativum. All inoculated plants were placed in a 99% humidity chamber for 24 hours and then placed in a greenhouse, maintained at a temperature of 21° C., for eight days. […] Percent control was computed and the results are summarized in Table II under the heading "HEL SAT".

In assay [1] the test system is Cercosporidium personatum. The assay can be described thus: Fungal germination and growth, treated disc on agar, scored (CER PER). More on the design: key: 100: Complete inhibition of germination and growth.; 80: Nearly complete inhibition but some growth.; 50: Partial inhibition of growth or, early complete inhibition but later growth begins.; 20: Some inhibition of growth, but not significant.; 0: No inhibition of growth. In kind it is cell-based. To be noted: disc dipped in 500 mg/l, 29° C., numerical score 0-100, spore suspension. The source says: Filter paper discs, each 11 mm. in diameter, were dipped in each of the test solutions. The discs were allowed to air dry to drive off the acetone solvent. A number of untreated discs were used as controls. The treated and untreated discs were then placed on agar plates and one of the following fungus species: Septoria nodorum (SEP NOD), Botrytis cinerea (BOT CIN), Fusarium oxysporum (FUS OXY), Pythium ultimum ([…]), Rhizoctonia solani (RHI SOL), Colletotrichum gossypii (COL GOS), and Scierotinia minor (SCL MIN), was added to the center of each disc in the form of a culture plug with the fungus mat in contact with the paper of the test disc. Cercosporidium personatum (CER PER), was added to discs as a spore suspension (20,000 spores/ml) to the disc (two drops of spore suspension per disc), rather than a mycelial culture plug. The plates were then incubated at 29° C. in an oven. In the case of the Cercosporidium personatum (CER PER) fungi, scoring was done on a numerical basis as follows: 100=Complete inhibition of germination and growth. 80=Nearly complete inhibition but some growth. 50=Partial inhibition of growth or, early complete inhibition but later growth begins. 20=Some inhibition of growth, but not significant. 0=No inhibition of growth. The results of all the above tests appear in Table III below under the headings "SEP NOD," "BOT CIN," "FUS OXY," "[…]" "COL GOS" and "CER PER".

Description for Rhizoctonia solani: The treated and untreated discs were then placed on agar plates and one of the following fungus species: Septoria nodorum (SEP NOD), Botrytis cinerea (BOT CIN), Fusarium oxysporum (FUS OXY), Pythium ultimum (PYT ULT), Rhizoctonia solani (RHI SOL), Colletotrichum gossypii (COL GOS), and Scierotinia minor (SCL MIN), was added to the center of each disc in the form of a culture plug with the fungus mat in contact with the paper of the test disc. Cercosporidium personatum (CER PER), was added to discs as a spore suspension (20,000 spores/ml) to the disc (two drops of spore suspension per disc), rather than a mycelial culture plug. The plates were then incubated at 29° C. in an oven.
With the exception of the discs containing Cercosporidium personatum, the discs were evaluated by first measuring the radius from the center of the fungus colony on the treated discs and on the untreated discs. Percent growth inhibition of each of the compounds tested was determined as a function of the difference between the radius of the fungus colony on the treated disc versus the radius of the fungus colony on the untreated disc.

As to `C=CCC(C#N)(CCc1ccc(OC)cc1)c1ccccn1` (stereo not shown) [Compound 28], the “Percent Reduction of Disease, ERY GRA” value in the assay with Erysiphe graminis was found to be 90%. For the same compound, the “Percent Growth Inhibition, RHI SOL” value with Rhizoctonia solani stood at 60%. Moreover, in the assay with Helminthosporium sativum, the “Percent Reduction of Disease, HEL SAT” value worked out at 100%. The “CER PER inhibition score” value in assay [1] is listed as 100.
For `COc1ccc(CCC(C#N)(CC(C)C)c2ccccn2)cc1` (stereo not shown) [Compound 29] the same measures were 100%, 70%, 100% and 100.
On to `CCCCCC(C#N)(CCc1ccc(OC)cc1)c1ccccn1` (stereo not shown) [Compound 30], for which, in the assay with Erysiphe graminis, the “Percent Reduction of Disease, ERY GRA” value stood at 100%. The “Percent Growth Inhibition, RHI SOL” value with Rhizoctonia solani came to 10%. For the same compound, the “Percent Reduction of Disease, HEL SAT” value with Helminthosporium sativum is given as 90%. Besides, the “CER PER inhibition score” value in assay [1] amounted to 0.
Turning to `CCCCC(C#N)(CCc1ccc(OC)cc1)c1ccccn1` (stereo not shown) [Compound 31], the “Percent Reduction of Disease, ERY GRA” value in the assay with Erysiphe graminis came to 20%. Further, in the assay on Rhizoctonia solani, the “Percent Growth Inhibition, RHI SOL” value came out at 5%. In addition, the “Percent Reduction of Disease, HEL SAT” value in the assay on Helminthosporium sativum is recorded as 90%. Besides, the “CER PER inhibition score” value in assay [1] was 0.
Regarding `N#CC(CCCc1ccc(Cl)cc1)(CC1CC1)c1ccccn1` (stereo not shown) [Compound 32], the “Percent Reduction of Disease, ERY GRA” value in the assay with Erysiphe graminis stood at 100%. Moreover, the “Percent Growth Inhibition, RHI SOL” value with Rhizoctonia solani was 0%. For the same compound, in the assay on Helminthosporium sativum, the “Percent Reduction of Disease, HEL SAT” value worked out at 90%. In assay [1], the “CER PER inhibition score” value is 0.
Take `C=CCC(C#N)(CCc1ccc(C)cc1)c1cccnc1` (stereo not shown) [Compound 33]: the pest or weed control at 1000 µg/mL in the assay on Erysiphe graminis and in the assay with Helminthosporium sativum was 100% each time. The inhibition (in general, the relative decrease from the control value, in per cent) at 500 µg/mL with Rhizoctonia solani was 0%. Besides, the “CER PER inhibition score” value in assay [1] stood at 0.
With `CCCCC(C#N)(CCc1ccc(OCC)cc1)c1cccnc1` (stereo not shown) [Compound 35], the figures for the pest or weed control at 1000 µg/mL in the assay on Erysiphe graminis and with Helminthosporium sativum were 85% and 100%, respectively. For the same compound, the inhibition at 500 µg/mL with Rhizoctonia solani came out at 40%. For the same compound, the “CER PER inhibition score” value in assay [1] worked out at 0.
For `CCCCCCC(C#N)(CCc1ccc(OC)cc1)c1cccnc1` (stereo not shown) [Compound 36] the same measures were 85%, 100%, 25% and 0.
For `COc1ccc(CCC(C#N)(CC2CC2)c2cccnc2)cc1` (stereo not shown) [Compound 37] the same measures were 92%, 100%, 13% and 0.
As to `C#CCC(C#N)(CCc1ccc(OC)cc1)c1cccnc1` (stereo not shown) [Compound 38], the figures for the pest or weed control at 1000 µg/mL in the assay with Erysiphe graminis and with Helminthosporium sativum were 83% and 100%, respectively. For the same compound, the inhibition at 500 µg/mL in the assay on Rhizoctonia solani amounted to 0%. For the same compound, the “CER PER inhibition score” value in assay [1] was 0.
Taken in the same sequence, the figures for `CC(C)CC(C#N)(CCc1ccc(F)cc1)c1cccnc1` (stereo not shown) [Compound 39] were 92%, 100%, 11% and 0.
For `C=CCC(C#N)(CCc1ccc(OCC)cc1)c1cccnc1` (stereo not shown) [Compound 40] the same measures were 67%, 100%, 0% and 0.
For `C#CCC(C#N)(CCc1ccc(F)cc1)c1cccnc1` (stereo not shown) [Compound 41] the same measures were 92%, 100%, 26% and 0.
Turning to `CCCCC(C#N)(CCc1ccc(OCC)cc1)c1cccnc1.Cl` (stereo not drawn) [Compound 42, α-butyl-4-ethoxy-α-(3-pyridinyl)-benzenebutanenitrile hydrochloride], the “Percent Reduction of Disease, ERY GRA” value in the assay with Erysiphe graminis was 92%. Also, in the assay with Rhizoctonia solani, the “Percent Growth Inhibition, RHI SOL” value turned out to be 32%. Also, the “Percent Reduction of Disease, HEL SAT” value with Helminthosporium sativum was found to be 100%. For the same compound, the “CER PER inhibition score” value in assay [1] is recorded as 0.
On to `CCOc1ccc(CCC(C#N)(CC(C)C)c2cccnc2)cc1` (stereo not shown) [Compound 43], for which the pest or weed control at 1000 µg/mL in the assay on Erysiphe graminis is 92%; with Helminthosporium sativum, 100%. In addition, the inhibition at 500 µg/mL with Rhizoctonia solani turned out to be 48%. In assay [1], the “CER PER inhibition score” value was 100.
For `CCCCCCC(C#N)(CCc1ccc(OCC)cc1)c1cccnc1` (stereo not shown) [Compound 44] the same measures were 83%, 100%, 30% and 100.
Taken in the same sequence, the figures for `CCCCCCC(C#N)(CCc1ccc(F)cc1)c1cccnc1` (stereo not shown) [Compound 45] were 92%, 100%, 6% and 100.
Taken in the same sequence, the figures for `CCCC(C#N)(CCc1ccc(OCC)cc1)c1cccnc1` (stereo not shown) [Compound 46] were 92%, 100%, 8% and 0.
With `CC(C)=CCC(C#N)(CCc1ccc(F)cc1)c1cccnc1` (stereo not shown) [Compound 47], the pest or weed control at 1000 µg/mL is 70% with Erysiphe graminis and 100% in the assay on Helminthosporium sativum. Further, the inhibition at 500 µg/mL in the assay on Rhizoctonia solani turned out to be 45%. Further, the “CER PER inhibition score” value in assay [1] is given as 0.
Taken in the same sequence, the figures for `COc1ccc(CCC(C#N)(CC=C(C)C)c2cccnc2)cc1` (stereo not shown) [Compound 48] were 67%, 100%, 28% and 50.
In the case of `CC(C)CCC(C#N)(CCc1ccc(F)cc1)c1cccnc1` (stereo not shown) [Compound 49], the pest or weed control at 1000 µg/mL with Erysiphe graminis and in the assay on Helminthosporium sativum was 100% each time. The “Percent Growth Inhibition, RHI SOL” value in the assay on Rhizoctonia solani came to 100%. Further, the “CER PER inhibition score” value in assay [1] came out at 0.
Regarding `COCC(C#N)(CCc1ccc(OC)cc1)c1cccnc1` (stereo not shown) [Compound 50], the results for the pest or weed control at 1000 µg/mL with Erysiphe graminis and in the assay with Helminthosporium sativum were 80% and 100%, respectively. Further, the inhibition at 500 µg/mL with Rhizoctonia solani is 20%. Moreover, in assay [1], the “CER PER inhibition score” value was determined as 0.
For `COCC(C#N)(CCc1ccc(F)cc1)c1cccnc1` (stereo not shown) [Compound 51] the same measures were 91%, 90%, 30% and 100.
As to `N#CC(CCc1ccc(F)cc1)(CC(F)(F)F)c1cccnc1` (stereo not shown) [Compound 52], the pest or weed control at 1000 µg/mL in the assay on Erysiphe graminis and with Helminthosporium sativum was 100% throughout. Also, the inhibition at 500 µg/mL in the assay with Rhizoctonia solani came out at 100%. For the same compound, in assay [1], the “CER PER inhibition score” value stood at 100.
Consider `N#CC(CCF)(CCc1ccc(F)cc1)c1cccnc1` (stereo not shown) [Compound 53], for which the pest or weed control at 1000 µg/mL worked out at 100% in the assay with Erysiphe graminis and 90% in the assay on Helminthosporium sativum. The inhibition at 500 µg/mL in the assay on Rhizoctonia solani amounted to 75%. Besides, the “CER PER inhibition score” value in assay [1] worked out at 0.
